Where a SMILES comes first, the peptide text is derived from it. The star is where a group is joined. Cbz = O=C(OCc1ccccc1)*
Experiments:
[1] = system: neurons derived from human Pluripotent Stem Cells (hPSC); assay: TDP-43 localisation (immunofluorescence) after proteasome inhibitor treatment of hPSC-derived neurons; format: cell-based; settings: MG132 applied for 24 hrs
Description: (§1) In contrast, DEGs identified in THY1-cells were connected to cellular stresses previously associated with ALS^1,2 (FIG. 7D) and many were shared with transcriptional changes identified in patients' excitatory cells as a whole (FIG. 8B). […] It was next asked if aspects of these changes could be modeled in vitro using neurons derived from human Pluripotent Stem Cells (hPSC) (FIG. 15A).
Human embryonic stem cells were cultured in mTESR (Stemcell technologies) on matrigel (Corning). Neurons were generated from HuES-3-Hb9:GFP based on the motor neuron differentiation protocol previously described^27. Upon completion of the differentiation protocol, cells were sorted via flow-cytometry based on GFP signal intensity to yield GFP-positive neurons that were plated on PDL/laminin-coated plates (Sigma, Life technologies). Neurons were maintained in Neurobasal medium (Life Technologies) supplemented with N2 (Stemcell technologies), B27 (Life technologies), glutamax (Life technologies), non-essential amino acids (Life technologies), and neurotrophic factors (BDNF, GDNF, CNTF), and were grown for 28 days before the application of the proteasome inhibitors MG132 for 24 hrs.

[2] = system: neurons derived from human Pluripotent Stem Cells (hPSC); assay: Bulk RNA-sequencing of hPSC-derived neurons after proteasome inhibitor treatment; format: cell-based; settings: MG132 applied for 24 hrs, compared with excitatory neurons from sALS patients
Description: as §1
Human embryonic stem cells were cultured in mTESR (Stemcell technologies) on matrigel (Corning). Neurons were generated from HuES-3-Hb9:GFP based on the motor neuron differentiation protocol previously described^27. Upon completion of the differentiation protocol, cells were sorted via flow-cytometry based on GFP signal intensity to yield GFP-positive neurons that were plated on PDL/laminin-coated plates (Sigma, Life technologies). […]
RNA was extracted using RNeasy Plus kit (Qiagen), libraries were prepared using the Illumina TruSeq RNA kit v2 according to the manufacturer's directions, and sequenced at the Broad Institute core with samples randomly assigned between two flow chambers. […] The read counts were obtained from the aligned BAM-files in R using Rsubread. Differential gene expression was analyzed from the read counts in DESeq2 using a Wald's test for the treatment dosage and controlling for the sequencing flow cell.

## CC(C)C[C@@H](C=O)NC(=O)[C@H](CC(C)C)NC(=O)[C@H](CC(C)C)NC(=O)OCc1ccccc1 [MG132] (Cbz-Leu-Leu-Leu-aldehyde)
[1]
  nuclear loss of TDP-43: sufficient to induce nuclear loss of TDP-43
[2]
  transcriptomic changes after treatment (RNA-sequencing): widespread transcriptomic changes after treatment

From patent US20220160750A1, “SINGLE-NUCLEI CHARACTERIZATION OF AMYOTROPHIC LATERAL SCLEROSIS FRONTAL CORTEX” (President and Fellows of Harvard College, priority 2020, published 2022)
